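1) Cells in 96-well plates. 2) Compound, 48 h, 5 concentrations. 3) Linear interpolation between surrounding doses. 4) Unreached endpoint = highest concentration. GI50: concentration for 50% inhibition of growth.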 Activity calls are given as the source filed them. No stated cut-off is given here; in the data, active = GI50 up to about 1.1 µM and inactive = higher.
Assays:
Assay in all cases: inhibition of tumour cell growth, NCI panel, 48 h
OVCAR-3 = test system: OVCAR-3
KM-20L2 = test system: KM-20L2
DLD-1 = test system: DLD-1
RPMI-8226 = test system: RPMI-8226
HOP-18 = test system: HOP-18
RXF 393 = test system: RXF 393
XF498 = test system: XF498
DMS-114 = test system: DMS-114
SK-MEL-2 = test system: SK-MEL-2
NCI-H23 = test system: NCI-H23
A498 = test system: A498
SK-OV-3 = test system: SK-OV-3
A549 = test system: A549
HOP-92 = test system: HOP-92
786-0 = test system: 786-0
M14 = test system: M14
Hs-578T = test system: Hs-578T
MDA-MB-231 = test system: MDA-MB-231
T47D = test system: T47D
BT-549 = test system: BT-549

| SMILES | GI50 (OVCAR-3) | GI50 (KM-20L2) | GI50 (DLD-1) | GI50 (RPMI-8226) | GI50 (HOP-18) | GI50 (RXF 393) | GI50 (XF498) | GI50 (DMS-114) | GI50 (SK-MEL-2) | GI50 (NCI-H23) | GI50 (A498) | GI50 (SK-OV-3) | GI50 (A549) | GI50 (HOP-92) | GI50 (786-0) | GI50 (M14) | GI50 (Hs-578T) | GI50 (MDA-MB-231) | GI50 (T47D) | GI50 (BT-549) |
| --- | --- | --- | --- | --- | --- | --- | --- | --- | --- | --- | --- | --- | --- | --- | --- | --- | --- | --- | --- | --- |
| O=S(=O)(CCBr)CCBr | 3.67 µM (inactive) | 11.1 µM (inactive) | 2.86 µM (inactive) | 4.53 µM (inactive) | 15 µM (inactive) | 2.17 µM (inactive) | < 0.01 µM (active) | 2.18 µM (inactive) | 11.3 µM (inactive) | 6.52 µM (inactive) | 6.3 µM (inactive) | 19.3 µM (inactive) | 13.9 µM (inactive) | 6.21 µM (inactive) |  |  |  |  |  |  |
| O=C(O)CSc1nnc(/C=C/c2ccccc2)[nH]1 | > 100 µM (inactive) | > 100 µM (inactive) | > 100 µM (inactive) | > 100 µM (inactive) | > 92.7 µM (inactive) | > 100 µM (inactive) | > 100 µM (inactive) | > 64.3 µM (inactive) | > 100 µM (inactive) | > 100 µM (inactive) | > 100 µM (inactive) | > 100 µM (inactive) | > 100 µM (inactive) | > 100 µM (inactive) | > 100 µM (inactive) | > 100 µM (inactive) |  |  |  |  |
| CNC(=S)N/N=C(/C)CCC/C(C)=N/NC(=S)NC | 0.411 µM (active) |  |  | 5.61 µM (inactive) |  |  |  |  | > 100 µM (inactive) | > 100 µM (inactive) | > 75 µM (inactive) | > 100 µM (inactive) | 5.45 µM (inactive) | > 100 µM (inactive) |  | > 100 µM (inactive) | > 100 µM (inactive) | > 28.6 µM (inactive) | 1.23 µM (inactive) | > 100 µM (inactive) |
| CSc1nc(NC2OC(CO)C(O)C(O)C2O)c(N)c(=O)n1C (centres undefined) | > 100 µM (inactive) | > 100 µM (inactive) | > 100 µM (inactive) | > 100 µM (inactive) | > 100 µM (inactive) | > 100 µM (inactive) | > 100 µM (inactive) | > 100 µM (inactive) | > 100 µM (inactive) | > 100 µM (inactive) | > 100 µM (inactive) | > 100 µM (inactive) | > 100 µM (inactive) | > 100 µM (inactive) |  |  |  |  |  |  |
| C=C1CC(OC)(C(OC)C(=O)N(C)[C@H]2OCO[C@H]3C2O[C@H](C[C@@H](COC)OC)C(C)(C)C3OC)O[C@H](C)[C@@H]1C (some centres undefined) | 10 µM (inactive) | 13.3 µM (inactive) | 18.3 µM (inactive) | 17.2 µM (inactive) | 25.5 µM (inactive) | 10.6 µM (inactive) | 7.91 µM (inactive) | 11.2 µM (inactive) |  | 9.57 µM (inactive) | 12 µM (inactive) |  | 16 µM (inactive) |  |  |  |  |  |  |  |
| CN(C)CCCNC(=O)c1c(-c2cccnc2)cnc2ccccc12 | > 100 µM (inactive) |  |  | > 100 µM (inactive) |  | > 100 µM (inactive) |  |  | > 100 µM (inactive) | > 100 µM (inactive) |  | > 100 µM (inactive) | > 100 µM (inactive) | > 100 µM (inactive) | > 100 µM (inactive) | > 100 µM (inactive) |  |  |  | > 100 µM (inactive) |
| C[n+]1ccc(Nc2ccc(NC(=O)c3ccc(Nc4cc[n+](C)c5ccc([N+](=O)[O-])cc45)cc3[N+](=O)[O-])cc2)cc1 | 18.9 µM (inactive) |  | > 92 µM (inactive) | 24 µM (inactive) | 20.3 µM (inactive) |  | > 41.3 µM (inactive) | 1.05 µM (active) | 48.8 µM (inactive) | > 55.6 µM (inactive) | 36.7 µM (inactive) | 60.3 µM (inactive) | 22.5 µM (inactive) | 22.8 µM (inactive) |  |  |  |  |  |  |
| NCCCn1c(Cl)nc2ccccc21 | > 100 µM (inactive) |  |  | > 100 µM (inactive) |  | > 100 µM (inactive) |  |  | > 100 µM (inactive) | > 100 µM (inactive) | > 100 µM (inactive) | > 100 µM (inactive) | > 100 µM (inactive) |  | > 100 µM (inactive) | > 100 µM (inactive) | > 100 µM (inactive) | > 100 µM (inactive) | > 100 µM (inactive) | > 100 µM (inactive) |
| CCCCN(CCCC)C(=O)C(=O)C(C(=O)C(=O)OC)c1nc2ccccc2o1 (centres undefined) | 78.5 µM (inactive) |  | 53.8 µM (inactive) |  | > 100 µM (inactive) | 17.5 µM (inactive) | 64.3 µM (inactive) | 54 µM (inactive) | > 100 µM (inactive) | > 100 µM (inactive) | > 100 µM (inactive) | > 100 µM (inactive) | > 100 µM (inactive) | > 100 µM (inactive) | > 100 µM (inactive) | > 100 µM (inactive) |  |  |  |  |

From ChEMBL document CHEMBL1201862, “PubChem BioAssay data set” (2004)
